The values below come from patent publication US10092591B2, “Methods and compositions for the treatment of ischemic injury to tissue using therapeutic hypothermia” (University of Alaska Fairbanks, priority 2014, dated 2018).

SMILES strings stand for the structures. Read-outs that look alike come from different tables or passages of the source.

Data set [1] has as its system Male Sprague-Dawley rats. The data set is described as follows: Continuous CHA delivery through iPRECIO pumps at Ta 16° C. or 25° C., with 8-SPT injection. The class given is in vivo, rat. The settings on record: for mean minimum Tb: continuous CHA via SQ minipump, equivalent to 1 mg/kg every 4 hr, 24 hr. On the procedure:
To determine if the effects of CHA on heart rate were due to direct effects of CHA on the heart or to the effects of tissue temperature, programmable minipumps were employed to deliver CHA continuously for 24 hr at an ambient temperature of 25° C. and 16° C. […] For these experiments a separate group of rats was instrumented with programmable iPRECIO® pumps (DSI, St. Paul, Minn.). CHA was dissolved in 25% (w/v) hydroxypropyl-β-cyclodextrin (CD) in sterile water and 8-SPT was dissolved in 0.9% saline. Pumps delivered the same mass of CHA as in the first experiment (6 mg/kg over a 24 hr period), however, in this case CHA was delivered at a constant rate of 30 μL/hr. Heart rate (HR) and hemoglobin saturation (sO2) was monitored using a pulse oximeter every 10 min for 1 hr following a single injection of 8-SPT (25 mg/kg, i.p.) or vehicle as indicated. As before, animals in both treatment and control groups were moved to an ambient temperature (Ta) of 16° C. or 25° C. the day before the experiment and remained at this Ta until return to a Ta of 20° C., 4 hr after the end of drug delivery. Drug and vehicle treatments were administered to all animals using a balanced cross-over design. At least 1 week separated CHA and vehicle (CD) treatment and 1 hr separated 8-SPT and vehicle (saline) injections. A pulse oximeter (Vet/Ox […], Model 72042A3 Sensor Devices Inc., Lancaster, Pa.) was used to monitor heart rate (HR) and sO2. Pulse oximetry was acquired via a sensor on the paw.

For data set [2] the following is noted: rabbit; Liu G S et al., 1991; cited from earlier work.
For data set [3] the following is noted: stated as approximated by the 4 hr injection interval; cited from earlier work.
For data set [4], the system named is arctic ground squirrel (AGS). The data set is described as follows: CHA-induced torpor and hypothermic response in arctic ground squirrel. The class given is in vivo. The following applies: CHA 0.1 mg/kg i.p.; trough vs peak in euthermic Tb,sc; p<0.05, n=6; FIG. 2B. The source says: Adenosine is a neuroprotective by-product of cellular metabolism that accumulates and is released from the brain during traumatic events (Dunwiddie and Masino, 2001). Under nonpathologic conditions, adenosine functions as a bioenergetic network regulator (Boison et al., 2011), and as a neuromodulator with key roles in sleep, thermoregulation and hibernation (Drew and Jinka, 2012) via a family of G protein-coupled receptors (GPCR). Torpor onset in the arctic ground squirrel (AGS) is regulated within the CNS by A1AR signaling and depends on a seasonal change in sensitivity to agonists (Jinka et al., 2011). […] Moreover, CHA-induced torpor is similar to spontaneous torpor with regard to the magnitude and temporal profile of metabolic suppression and Tb decline. A seasonally regulated decrease in Tb during rest in euthermic (non-hibernating) AGS predicts onset of torpor and an increased hypothermic response to CHA. Thus, Tb in animals at rest is a biomarker of enhanced sensitivity to A1AR signaling (FIG. 2). This relationship between Tb and sensitivity to CHA is observed in rats as well as in AGS as disclosed herein.
Spontaneous torpor is indicated by abrupt decreases in Tb,sc below about 30° C.

The subject of data set [5] is dietary restricted (DR) rats. The data set is described as follows: Induction of hypothermia by intermittent CHA and 8-SPT in ad libitum fed and dietary restricted rats. The class given is in vivo, rat. How it is done:
First, shivering is alleviated through stimulation of central A1AR. Second, the Tb minimum and rate of cooling following stimulation of A1AR in the CNS can be controlled through manipulation of ambient temperature without external or internal cooling. These principles were used to develop methods for inducing hypothermia in dietary restricted (DR) rats (FIG. 3B). In FIG. 3, the magnitude and rate of cooling was controlled by adjusting ambient temperature (i.e., 16° C.) and regulating sensitivity to CHA through DR (every other day feeding, see FIG. 3B). Peripheral side effects were minimized by co-administration of 8-SPT (2.5 mg/kg i.p.) 15 min prior to CHA (0.5 mg/kg, i.p.). […].

Data set [6] deals with rats subjected to 8 min of asphyxial cardiac arrest. The data set is described as follows: Therapeutic hypothermia in rats subjected to 8 min asphyxial cardiac arrest. The class given is in vivo, rat. On the procedure: Rats aged 68-75 days were subjected to 8 min of asphyxial cardiac arrest and animals that were resuscitated within 120 sec and met additional inclusion criteria 60 min after ROSC (Table 1) were randomly allocated to a therapeutic hypothermia (TH) or a normothermic control (NC) group using a computer-generated randomization schedule without knowledge of outcome. Treatment commenced 70 min after restoration of spontaneous circulation (ROSC).
Animals assigned to the TH group were moved to 16° C. and CHA and 8-SPT delivered as described above for Drug delivery via sequential IP injections. Animals assigned to the NC group were moved to a neonatal incubator set to 29° C. and vehicles (PB and saline) delivered as described above for the control group. At the end of 24 hr the rats were moved to and housed an ambient temperature of 20° C. for 7 days until they were euthanized for tissue collection. Body temperature was monitored prior to each injection throughout treatment and daily thereafter using sc IPTT-300 transponders (BioMedic Data Systems, Inc. Seaford, Del.).
ACA was induced as described by Dave et al., 2006. Animals were anesthetized with 5% isofluorane and a 30:70 mixture of O2 and N2O followed by endotracheal intubation and mechanical ventilation. The femoral vein and artery were cannulated for continuous blood pressure monitoring and blood gas analysis. ECG leads were attached to the limbs. Physiological variables, including but not limited to PaCO2, PaO2, and pH were maintained within normal limits by adjusting respiratory rate and volume. MABP and ECG were monitored continuously. Temporalis muscle and rectal temperatures were maintained at 36.5-37.5° C. by heating lamps and Omega (Stamford, Conn.) T-CSC32 temperature controllers. To induce cardiac arrest, vecuronium (1 mg/kg) was injected I.V. and apnea was induced by disconnecting the ventilator from the endotracheal tube. Resuscitation was initiated by reconnecting the ventilator, administering epinephrine (0.01 mg/kg, I.V.) and sodium bicarbonate (1 mg/kg, I.V.) mechanically ventilating with 100% O2 at a rate of 80 bpm and manual chest compressions until MABP reached 50 mm Hg and was maintained by a spontaneously beating heart for more than 10 sec. After 10 min of ROSC, ventilation was decreased to 60 bpm and O2 lowered to 30%. Naïve animals were subjected to similar surgical procedures except that the ventilator was not disconnected from the endotracheal tube.
Post-operative (post-op) rats subjected to 6 min and 8 min CA and not assigned to hypothermia experiments were placed in a neonatal incubator overnight with only water provided (0.9% saline, I.P. based off […] body weight was injected at the end of surgery to prevent dehydration). After 8-16 hr, animals were fed, weighed, cleaned, and had neurological deficit scores (NDS) analyzed daily for 7 days beginning 2 hr post ROSC. Rats were fed a 50:50 mix of rodent chow and sugar mixed with water to create a soup, which was placed into small petri dishes to allow animals to self-feed. Animals that were unable to feed themselves were assisted via spoon-feeding. Spoon-feeding involved using a gavage needle and a 3 cc syringe to slowly and carefully inject the liquid soup material into the rat's mouth allowing their “swallow-reflex” to determine how much food was given.
Behavioral Neurological Deficit Scores (NDS) were taken daily for 7 days after asphyxial cardiac arrest to assess injury. The total NDS consists of five components: consciousness and respiration, cranial nerve function, motor function, sensory function, and coordination (leg/tail movement, cleaning, depth perception, and righting reflex) as previously described in Katz et al., 1995). The NDS range is a scale between 0 (normal function) to 100 (brain dead). […]

Data set [7] deals with Male Sprague-Dawley rats. The data set is described as follows: Sustained hypothermia in conscious rats, drug delivery via sequential i.p. injections. It is filed as in vivo.
The subject of data set [8] is arctic ground squirrel (AGS). The settings on record: CHA i.p. or into the lateral ventricle (icv), cited from earlier work.
[9] abbreviates: 8-SPT 25 mg/kg i.p. in CHA treated animals, Ta 25° C.

Take `Cn1c(=O)c2[nH]c(-c3ccc(S(=O)(=O)O)cc3)nc2n(C)c1=O` [8-SPT, 8-p-sulfophenyltheophylline]: the “influence on Tb” value in the data set with Male Sprague-Dawley rats [1] (8-SPT 25 mg/kg i.p. in CHA treated animals, Ta 16° C.) is listed as “no influence on Tb”; with Male Sprague-Dawley rats [1] (setting [9]) it was “no influence on Tb”. Moreover, the heart rate entry in the data set with Male Sprague-Dawley rats [1] (setting [9]) is listed as “small, but significant increase”. The “increase in heart rate” value in the data set on Male Sprague-Dawley rats [1] (8-SPT 25 mg/kg i.p. in animals treated with continuous CHA, Ta 16° C.) was 2 fold. Also, the “heart rate in control animals” value with Male Sprague-Dawley rats [1] (8-SPT in control (CD treated) animals, Ta 16° C., saline vehicle did the same) is on record as “increased heart rate”. In addition, the “heart rate or Tb in control animals” value with Male Sprague-Dawley rats [1] (8-SPT in control (CD treated) animals, Ta 25° C.) is reported as “no effect on heart rate or Tb”. In addition, the “time for effects of 8-SPT to subside” value in the data set with Male Sprague-Dawley rats [1] (after 8-SPT 25 mg/kg i.p., Ta 16° C.) is not above 60 min. Also, in data set [2], the half-life is 0.75 h.

Regarding `OC[C@H]1O[C@@H](n2cnc3c(NC4CCCCC4)ncnc32)[C@H](O)[C@@H]1O` [CHA, N^6-cyclohexyladenosine], the half-life in data set [3] is approximately 4 h. Further, in the data set on Male Sprague-Dawley rats [1] (continuous CHA at Ta 16° C. and 25° C.), the sO2 entry is recorded as “no effect”. For the same compound, the heart rate result with Male Sprague-Dawley rats [1] (continuous CHA at Ta 16° C. and 25° C. vs CD vehicle, p<0.01) is given as “decreased”. Also, the “mean minimum Tb” value with Male Sprague-Dawley rats [1] (Ta 16° C.) was determined as 29.3±0.3 °C. Also, the “mean minimum Tb” value in the data set with Male Sprague-Dawley rats [1] (Ta 25° C.) worked out at 35.6±0.12 °C. The “maximal response to a low (non-torpor inducing) dose” value in data set [4] is given as “greater when tested during a trough than when tested during a peak”. Also, the “magnitude of cooling at a given dose” value in data set [5] (dietary restriction (every other day feeding) vs ad libitum, CHA 0.5 mg/kg with 8-SPT) was “enhanced following DR”. For the same compound, in data set [5] (repeated co-administration: 8-SPT 2.5 mg/kg i.p. 15 min prior to CHA 0.5 mg/kg i.p., 4 hr intervals, Ta 16° C.), the “Tb in conscious rats” value is recorded as “immediate decrease in Tb”. Further, the “number of healthy neurons per mm of CA1 (mean±SEM)” value in data set [6] (TH group n=3, 8 days after 8 min asphyxial CA, naïve 180.8±12.3, normothermic control 47.8) was found to be 135.5±4.6. For the same compound, the “survival to 8 days” value in data set [6] (TH group, n=3, 1 of 3 survived in normothermic control group) amounted to 3 rats. In data set [6] (TH group, n=3), the “individual Tb minima” value is 29.7±0.3 °C and the “time to Tb of 31.0 to 31.6° C. after CHA injection” value was not above 3 h. In data set [6] (TH group, transfer 4 hr after last CHA injection), the “time to rewarm without intervention after transfer to Ta of 20° C.” value was not above 5 h. For the same compound, the “time at which Tb reached a minimum after ROSC” value in data set [6] (cooling initiated 70 min post ROSC) came to 12 h. Further, in data set [6] (hypothermia group), the post-operative recovery entry was “recovered without need for post-op care”. Moreover, the “Tb on repeated injection” value in the data set with Male Sprague-Dawley rats [7] (CHA 1.0 mg/kg i.p. at 4 hr intervals, 6 injections, 8-SPT 15 min prior, Ta 16° C.) was “steady minimum in Tb after the fourth injection”. For the same compound, the “Tb decreased to” value in the data set on Male Sprague-Dawley rats [7] (CHA 1.0 mg/kg i.p., 8-SPT 25 mg/kg i.p. 15 min prior, Ta 16° C., FIG. 4A) is 33 °C. The “time to decrease of Tb to 33° C.” value with Male Sprague-Dawley rats [7] (CHA 1.0 mg/kg i.p., 8-SPT 15 min prior, Ta 16° C.) is not above 1 h. The “heart rate at 24 hr” value in the data set with Male Sprague-Dawley rats [7] (CHA-treated rats, 4 hr after last 8-SPT and CHA injection, FIG. 4C) is “slight, but statistically significant bradycardia”. Further, in the data set with Male Sprague-Dawley rats [7] (after 6 injections of CHA and 8-SPT, no other means of rewarming), the “time to rewarm after moving to Ta of 20° C.” value is not above 3.5 h. Further, the “adverse events after rewarming” value in the data set with Male Sprague-Dawley rats [7] (after 24 hr CHA and 8-SPT at Ta 16° C.) is reported as “without evidence of significant adverse events”. Also, the “heart rate 5.5 hr after the last CHA injection” value in the data set with Male Sprague-Dawley rats [7] (after rewarming, FIG. 4C) is given as “remained significantly elevated”. Further, the “neurological deficit scores (NDS)” value with Male Sprague-Dawley rats [7] (during hypothermia, FIG. 4B) was “increased”. Further, the “torpor induction in summer” value in data set [8] (summer) is recorded as “not in summer”. In addition, the “torpor induction in winter” value in data set [8] (winter) was “induces torpor”.
